# In patent US20050238635A1, “Use of hyrogen peroxide producting enzyme for treatment of otitis media” (priority 2002, published 2005):
# B1: Catalase: Purified catalase from human erythrocytes; enzyme catalyzing the conversion of H2O2 into O2 and H2O (protein, UniProt P04040 2-527, looked up)
# Catalase: ADSRDPASDQMQHWKEQRAAQKADVLTTGAGNPVGDKLNVITVGPRGPLLVQDVVFTDEMAHFDRERIPERVVHAKGAGAFGYFEVTHDITKYSKAKVFEHIGKKTPIAVRFSTVAGESGSADTVRDPRGFAVKFYTEDGNWDLVGNNTPIFFIRDPILFPSFIHSQKRNPQTHLKDPDMVWDFWSLRPESLHQVSFLFSDRGIPDGHRHMNGYGSHTFKLVNANGEAVYCKFHYKTDQGIKNLSVEDAARLSQEDPDYGIRDLFNAIATGKYPSWTFYIQVMTFNQAETFPFNPFDLTKVWPHKDYPLIPVGKLVLNRNPVNYFAEVEQIAFDPSNMPPGIEASPDKMLQGRLFAYPDTHRHRLGPNYLHIPVNCPYRARVANYQRDGPMCMQDNQGGAPNYYPNSFGAPEQQPSALEHSIQYSGEVRRFNTANDDNVTQVRAFYVNVLNEEQRKRLCENIAGHLKDAQIFIQKKAVKNFTEVHPDYGSHIQALLDKYNAEKPKNAIHTFVQSGSHLAAREKANL
# Columns and labels:
# M catarrhalis (Mcat-res) = experiment: broth test of alpha 4 co-cultured with resistant M catarrhalis (Mcat-res), with amitrole; assay type: cell-based; conditions: amitrole 50 mM in broth, 7 hours, 37° C.
# Description: Amitrole is an irreversible catalase inhibitor [12]. If an increased or more efficient catalase production was involved in the development of resistance of M cararrhalis to an isolate of AHS. This resistance would be reverted by addition of amitrole. In broth tests with alpha 4 together with M catarrhalis in 5 ml broth, 50 mM (0.1 ml) of amitrole (3-amino-1,2,4-triazole), was added into the solution and incubated for 7 hours at 37° C. in air with intermittent shaking. The isolate of M catarrhalis (Mcat-res) had developed resistance against alpha 4 after co-culturing in broth. CFU counts were calculated at start and after 7 hours of incubation. Alpha 4 with M catarrhalis in broth without amitrole, broth and M catarrhalis alone and M catarrhalis alone with amitrole in broth served as controls.
# H influenzae = experiment: filtrate test: inhibitory effect of cell-free PBS filtrate of AHS on growth (CFU) of H influenzae; assay type: cell-based
# Description: Numbers of colony forming units (CFU) were counted after serial dilutions in PBS and growth over night at 37° C. in air. Identification of the bacteria was based on different morphology of the isolates growing on the agar plates. AHS and M catarrhalis were grown on agar plates with 7% human blood and McLeod plates were used when H influenzae was assayed.
# To achieve a filtrate with inhibitory activity, about 10^6 CFU of AHS were inoculated in 4 vials, each containing 15 ml of broth and incubated for 12 hours. The suspension was then centrifuged at 3000 rpm for 15 min and the supernatant was thrown away. The bacteria were transferred into one vial and two ml of phosphate buffered saline (PBS) was added and incubated at 37° C. for 5 hours. The suspension was then passed through a 0.2 μm sterile filter to remove the bacteria. Otitis media pathogens (0.1 ml) were then added to the filtrate (1 ml) and incubated at 37° C. The controls were incubated in fresh PBS.
# Catalase is a specific enzyme catalyzing the conversion of H2O2 into O2 and H2O. This reaction proceeds rapidly. Purified catalase from human erythrocytes (>30.000U/mg) was used in the assays. The assays were performed as described above in the filtrate tests, with the exception that catalase, 1000 U/ml (=0.01 ml), was added to the vials with filtrate and PBS. […]
# [1] = trypsin tested together with hydrogen peroxide for catalase effect; assay type: biochemical
molecule,measurement,setting,value
"Nc1nc[nH]n1 [amitrole, 3-amino-1,2,4-triazole]",sensitivity of resistant M catarrhalis to inhibition of alpha 4 when amitrole added,M catarrhalis (Mcat-res),became sensitive
Trypsin,reversal of the inhibitory effect of the cell-free filtrate of alpha 89,"H influenzae; trypsin 2.5 mg/ml, filtrate incubated with H influenzae",only slightly reverse
same,catalase effect,[1],no catalase effect
B1,reversal of the inhibitory effect of the cell-free filtrate of AHS,"H influenzae; catalase 1000U/ml, filtrate of alpha 89 incubated with H influenzae",completely reverse
